Consider five compounds from publication PMC4900566, “Pharmacokinetic-Pharmacodynamic Analysis on Inflammation Rat Model after Oral Administration of Huang Lian Jie Du Decoction” (PLoS ONE, 2016).

The series is described as follows: Hepatic first-pass effect / hepatic clearance rate (jugular vs pyloric vein AUC0-t) in inflamed rats. In kind it is in vivo, Sprague-Dawley rats. The note with it: inflamed rats (G5, n = 5), oral HLJDD; HCR% = 100×(AUC0−t pyloric vein − AUC0−t jugular vein)/AUC0−t pyloric vein. The method, then:
For the PK-PD analysis, cannulas were implanted in each rat’s jugular vein (n = 22). To study the hepatic first-pass effect (HFPE), the jugular vein and the pyloric vein of each rat (n = 5) were cannulated according to the method described by Hye J. Chung et al. with slight modifications. Instead of the portal vein, the pyloric vein was cannulated to minimize the interference of blood flow in the portal vein [41]. The surgery was performed under anesthesia (3% chloral hydrate solution, intraperitoneal injection; 3.5 mL/kg) 5 days prior to the experiment. Rats with jugular vein intubation surgery were divided into four groups: a control group with HLJDD (G1, n = 6), aninflammatory group with HLJDD (G2, n = 6), aninflammatory group with physiological saline (G3, n = 5) and another inflammatory group with HLJDD (G4, n = 5). G1 and G2 were used for the pharmacokinetic study, while G3 and G4 were used for the pharmacodynamic study. Rats with jugular and pyloric vein cannulation for HFPE analysis were assigned to another inflammatory group with HLJDD (G5, n = 5).
The prepared HLJDD-EP solution was administered to the rats (G1, G2, G4 and G5) at 2 mL/100g body weight (crude material content: 3.5 g/kg) by oral gavage, and the G3 group was given the same volume of physiological saline. In the G1 and G2 groups, blood specimens (300 μL) were obtained before dosing and subsequently at 5 min, 10 min, 30 min, 1, 2, 4, 6, 8, 12, 24, 36 and 48 h after the oral administration of HLJDD-EP solution. In the G3 and G4 groups, blood samples (300 μL) were collected prior to dosing and followed at 10 min, 30 min, 1, 2, 4, 8, 24 and 48 h after drug administration. The rectal temperature of rats in the G3 and G4 groups was immediately monitored after each collection of blood. For the HFPE assay, blood specimens (150 μL) from both the jugular vein and the pyloric vein of the G5 rats were simultaneously taken before dosing and subsequently at 5 min, 10 min, 30 min, 1, 2, 4, 6, 8, 12, 24, 36 and 48 h after oral administration. Samples were collected in heparinized Eppendorf tubes and centrifuged at 3000 rpm for 15 min. The plasma was stored at -80°C until assay.
For the pharmacokinetic investigation and HFPE analysis, 100 μL aliquots of plasma were mixed with 5 μL of ascorbic acid (dissolved in physiological saline, w/v: 1 g/100 mL) and 200 μL of methanol (containing an internal standard stock solution with 80.0 ng/mL swertiamarin, 1.5 ng/mL corynoline and 33.0 ng/mL icariin), followed by vortexing and centrifuging at 15000 rpm for 20 min to remove the precipitate. The supernatant was dried with nitrogen at 40°C. […] The supernatant was analyzed using Agilent 1290 ultra-high performance liquid chromatography coupled with an Agilent 6490 Triple Quadrupole Mass Spectrometer (Agilent Technologies, Palo Alto, CA, USA).
Pharmacokinetic parameters of the determined compounds were processed by the non-compartmental method using Phoenix Winnonlin software (Pharsight Corporation, USA). […] The mean residence time (MRT) was determined as AUMC/AUC. The plasma half-life (HLλz), maximum plasma concentration (Cmax), the time to reach Cmax (Tmax) and other parameters following the administration of HLJDD were determined from the observed data. […] Concentrations of cytokines were analyzed by cytometric bead array software (FCAP Array version 3.0, BD Bioscience). All the data were expressed as the mean±standard deviation (SD). […]
Regarding `COc1cc(O)c2c(=O)cc(-c3ccccc3)oc2c1O[C@@H]1O[C@H](C(=O)O)[C@@H](O)[C@H](O)[C@H]1O` [F7, 5,8-dihyroxy-7-methoxy flavone-8-O-glucuronide], the “hepatic clearance rate (HCR)” value was “approximately zero”.
In the case of `COC(=O)C1=CO[C@@H](O[C@@H]2O[C@H](CO)[C@@H](O)[C@H](O)[C@H]2O)[C@H]2[C@@H]1C=C[C@@]2(O)CO` [I1, gardenoside], the “hepatic clearance rate (HCR)” value was -43.7%.
As for `COC(=O)C1=CO[C@@H](O[C@@H]2O[C@H](CO)[C@@H](O)[C@H](O)[C@H]2O)[C@@H]2C(CO)=C[C@@H](O)[C@H]12` [I2, scandoside methyl ester], the entry is “approximately zero”; as for `COc1cc(O[C@@H]2O[C@H](C(=O)O)[C@@H](O)[C@H](O)[C@H]2O)c2c(=O)cc(-c3ccccc3)oc2c1O[C@@H]1O[C@H](C(=O)O)[C@@H](O)[C@H](O)[C@H]1O` [F4, 5,8-dihyroxy-7-methoxy flavone-5,8-di-O-glucuronide], “approximately zero”.
Turning to `COC(=O)C1=CO[C@@H](O[C@@H]2O[C@H](CO[C@@H]3O[C@H](CO)[C@@H](O)[C@H](O)[C@H]3O)[C@@H](O)[C@H](O)[C@H]2O)[C@@H]2C(CO)=CC[C@H]12` [I3, genipin-1-gentiobioside], the “hepatic clearance rate (HCR)” value is on record as -156.6%.
